In US9908877B2, “Imidazo[1,5-a]pyridinium ion fluorophores, and methods of making and using the same” (Indiana University Research and Technology Corporation, priority 2013, dated 2018):

Legend:
Format in all cases: physicochemical
[1] = Fluorescence quantum yield, integrating sphere
Description: Method for Determining Quantum Yield
Quantum yield is determined using an integrating sphere attached to a QM-4-CW Spectrofluorometer using FeliX32 software (Photon Technology International).
(§1) The compounds were analyzed at 298° K according to the Method for Obtaining Ultraviolet-Visible Light Spectrum (30 μM acetonitrile) to obtain the maximum absorbance wavelength (λabs,max), Method for Obtaining Fluorescence Emission Spectrum (30 μM acetonitrile) to obtain the maximum emission wavelength (λem,max) and Method for Determining Quantum Yield (ΦF) (30 μM acetonitrile) at the concentration, in the solvent, and with the counter ion indicated in Table 1. The compounds included hydrogen at each R group that is not otherwise specified.
(§2) Compounds 6, 7, 9, 11-14 and 21 were analyzed according to: the Method for Obtaining Ultraviolet-Visible Light Spectrum to obtain the maximum absorbance wavelength (λabs,max), the Method for Obtaining Fluorescence Emission Spectrum to obtain the maximum emission wavelength (λem,max), and the Method for Determining Quantum Yield (ΦF) in the solvent and with the counter ion indicated in Table 3.

[2] = Fluorescence emission spectrum (maximum emission wavelength)
Description: Method for Obtaining a Fluorescence Emission Spectrum
Fluorescence emission spectra are obtained and recorded on a QM-4-CW Spectrofluorometer using FeliX32 software (Photon Technology International, Inc., Birmingham, N.J.).
as §1, §2

[3] = Ultraviolet-visible light spectrum (maximum absorbance wavelength)
Description: Method for Obtaining an Ultraviolet-Visible Light Spectrum
Ultraviolet-visible (UV-Vis) Light spectra are obtained and recorded on an Agilent 8453 spectrophotometer using ChemStation software (Agilent Technologies, Inc., Santa Clara, Calif.).
as §1, §2

[4] = Fluorescence response to pH in buffered water; conditions: 10 μM in water, pH = 7.5
[5] = Fluorescence response to pH in buffered water; conditions: for fluorescence emission in water at pH 7.5: water pH 7.5
Description: Stock solutions of each compound (having a concentration of from 1-5 mM) were prepared by dissolving the corresponding salts of the compounds in methanol or 1V, N-dimethylformamide, and then diluting the same with acetonitrile or buffered water having a pH of from 2.5 to 7.5 derived from 0.2 M […] and 0.1 M citric acid, to achieve a sample solution having a compound concentration of 30.0 μM.
The emission spectrum for each sample was obtained. The results are illustrated by the plot in FIG. 2A.
The emission spectrum for each sample was obtained. […] The results are illustrated in the plot of FIG. 2B.
The fluorescence emission spectrum of Compound 8 in water having a pH of 2.5 was also obtained and is illustrated by the curved line with a peak at 360 nm in FIG. 5B.
Compounds 10, 11, and 12 were each individually added, at a concentration of 30 μM, to water having a pH=7.5 and the emission spectra of each were obtained. […] As the pH was decreased from 7.5 to 2.5 in 0.5 pH unit increments, fluorescence emission at 600 nm remained relatively nonexistent and the intensity of the fluorescence emission at 400 nm increased in correlation to the decrease in pH. FIG. 8A illustrates the emission properties of Compound 12.

[6] = Fluorescence response to trifluoroacetic acid / DBU in acetonitrile; conditions: for emission wavelength λem,max: acetonitrile + 50 μL trifluoroacetic acid; for fluorescence emission in neat acetonitrile: acetonitrile without acid; for emission intensity at 400 nm: 30 μM in acetonitrile + 50 μL trifluoroacetic acid; for emission intensity at 600 nm / emission wavelength: 30 μM in neat acetonitrile
Description: A 30 μM solution of Compound 6 in acetonitrile was prepared by adding 99 μL of a stock solution of 3.04 mM Compound 6 in methanol to 10 mL of acetonitrile. An initial fluorescence emission spectrum of the solution was obtained and is illustrated by curve (i) in FIG. 1A.
A series of approximately 13.8 μL aliquots of trifluoroacetic acid (TFA) were then added to the 30 μM solution of Compound 6 until a total concentration of 60.0 mM of TFA was present in the solution. (The total amount of TFA present in the solution corresponded to 2000 equivalents of acid per equivalent of Compound 6.) The fluorescence emission spectrum of the resulting solution was obtained and is illustrated by curve (ii) in FIG. 1A.
A base, i.e., 1,8-diazabicyclo[5.4.0]undec-7-ene (DBU), was then added to the solution to neutralize the acid until a concentration of 90 mM DBU was obtained. The fluorescence emission spectrum of the resulting solution was obtained and is illustrated by curve (iii) in FIG. 1A. The fluorescence emission intensity at λem,max=565 nm increased as the amount of base present in the system increased and the fluorescence emission intensity at λem,max=405 nm decreased as the amount of base present in the system increased, which reflected Compound 6's ratiometric response to the changing base concentration in acetonitrile.
A 30 μM solution of Compound 7 in acetonitrile was prepared by adding 84 μL of a stock solution of 3.58 mM Compound 7 in methanol to 10 mL of acetonitrile. The emission spectrum of the solution was then obtained and is illustrated by curve (i) in FIG. 1B.
A series of approximately 13.8 μL aliquots of TFA were then added to the 30 μM solution of Compound 7 until a total concentration of 60.0 mM TFA was present in the solution (which corresponded to 2000 equivalents of acid per equivalent of Compound 7). The fluorescence emission spectrum of the solution was obtained and is illustrated by curve (ii) in FIG. 1B.
After the 60 mM TFA concentration was achieved, DBU was gradually added to the solution until a total concentration of 90 mM DBU was present in the solution. The fluorescence spectrum of the solution was obtained and is illustrated by curve (iii) in FIG. 1B.
An aliquot of 50 μL of trifluoroacetic acid was then added to the system, and the fluorescence emission spectrum was obtained and is illustrated by the curved line with a peak at 360 nm in FIG. 6A.
Compound 10 was placed in neat acetonitrile and its emission spectrum was monitored as trifluoroacetic acid was added to the acetonitrile in incremental amounts to achieve a solution that included an acid concentration ranging from 0 to 0.2 M. After each acid addition the sample was excited with radiation of a wavelength 340 nm, and its fluorescence emission spectrum was monitored. The results are illustrated in FIG. 7A.
The solution of Compound 10 in acetonitrile was titrated with trifluoroacetic acid (TFA). […] The first stage, which occurred with the addition of the initial aliquots of TFA, was a slight increase intensity at 580 nm, as illustrated in FIG. 7A. As more TFA was added to the system, a second transition occurred in which the emission at 580 nm began to decrease and as the emission at 400 nm began to increase, as illustrated in FIG. 7B. A plot of the emission intensity at 580 nm versus pH and at 400 nm versus pH is illustrated in FIG. 7C.
Compounds 10, 11, and 12 were then each individually added, at a concentration of 30 μM, to acetonitrile and the emission spectrum of each was monitored. The compounds emitted at 600 nm with an intensity of about 7.57×10^5 arbitrary units (a.u.) in neat acetonitrile. […] FIG. 8B illustrates the emission properties of Compound 12.

[7] = pKa from fluorescence intensity versus pH; conditions: non-linear regression of fluorescence intensity versus pH, buffered water pH 2.5 to 7.5
Description: Method for Determining pKa
A pKa value is determined by plotting fluorescence intensity (Imax) at emission maxima against pH and fitting the result to the non-linear expression in equation (1) (i.e., eq.(1)). In eq (1), a and b are the molar coefficient of the acid (HA) and base (A^−) form, respectively, and c is the combined overall concentration of the acid and base form. i.e., c=[HA]+[A^−].

[8] = Fluorescence response to hydrophobic environment (acetonitrile in water, SDS)
Description: Compound 12 was placed in water and the intensity of its fluorescence emission at 600 nm was monitored as the concentration of acetonitrile was increased from 0 volume to volume (v/v) % to 100 v/v % in increments of 10 v/v %.
Compound 12 was added to an aqueous solution of sodium dodecylsulfate (SDS) and monitored for fluorescence emission at 600 nm.

[9] = 30 μM acetonitrile, 298 K, Table 1

Row | SMILES | fluorescence λem ([5]; water, pH 2.5) | emission wavelength λem,max [6] [nm] | fluorescence emission in neat acetonitrile [6] | fluorescence emission in water at pH 7.5 [5] | […]F (quantum yield) ([1]; H2O pH = 2.5, 30 μM) [%] | […]F (quantum yield) ([1]; H2O pH = 7.5, 30 μM) [%] | […]F (quantum yield) ([1]; MeCN, 30 μM) [%] | λem, max Em ([2]; H2O pH = 2.5, 30 μM) [nm] | λabs, max Abs ([3]; H2O pH = 2.5, 30 μM) [nm] | λabs, max Abs ([3]; H2O pH = 7.5, 30 μM) [nm] | λabs, max Abs ([3]; MeCN, 30 μM) [nm] | emission intensity at 400 nm [6] | emission intensity at 600 nm [6] | emission wavelength [6] [nm] | […]F (quantum yield) ([1]; MeCN + 50 μL TFA, 30 μM) [%] | λem, max Em ([2]; MeCN + 50 μL TFA, 30 μM) [nm] | λem, max Em ([2]; MeCN, 30 μM) [nm] | λabs, max Abs ([3]; MeCN + 50 μL TFA, 30 μM) [nm] | further results
1 | CCN(CC)c1ccc(-n2cc3cccc[n+]3c2)cc1 [Compound 2, 2-(4-(diethylamino)phenyl)-2H-imidazo[1,5-a]pyridin-4-ium hexafluorophosphate] | 360-375 nm | – | – | – | – | – | – | – | – | – | – | – | – | – | – | – | – | – | ΦF (quantum yield) [1, 9]: 30%; λem, max Em [2, 9]: 515 nm; λabs, max Abs [3, 9]: 330 nm; emission maxima λem [4]: 550 nm; fluorescence λem ([5]; Example 13B: pH decreased to 2.5): 360-375 nm; emission maxima λem ([5]; Example 13B: printed 'neat acetonitrile having a pH of 7.5' / 'pH=7.5 in water'): 550 nm
2 | CC(C)c1cc(N(C)C)cc(C(C)C)c1-n1cc2cccc[n+]2c1 [Compound 8, 2-(4-(dimethylamino)-2,6-diisopropylphenyl)-2H-imidazo[1,5-a]pyridin-4-ium tetraphenylborate] | 360 nm | 360 | fluorescence quenching | fluorescence quenching | – | – | – | – | – | – | – | – | – | – | – | – | – | – | –
3 | CCN(CC)c1ccc(-n2c[n+]3ccccc3c2-c2ccc(OC)cc2)cc1.[Cl-] [Compound 7, 2-(4-(diethylamino)phenyl)-1-(4-methoxyphenyl)-2H-imidazo[1,5-a]pyridin-4-ium chloride] | – | – | essentially non-emissive | essentially non-emissive | 42 | 0 | 0 | 450 | 340 | 340 | 340 | – | – | – | – | – | – | – | ΦF (quantum yield) ([1]; 30 μM in acetonitrile with 60.0 mM TFA): 42%; quantum yield (ΦF) ([1]; 30 μM in acetonitrile, no acid, excited at 340 nm): 0.06%; […]F (quantum yield) ([1]; MeCN + 13.8 uL TFA, 30 μM): 57%; λem, max Em ([2]; MeCN + 13.8 uL TFA, 30 μM): 450 nm; λabs, max Abs ([3]; MeCN + 13.8 uL TFA, 30 μM): 340 nm; pKa [7]: 4.4; increase in cyan fluorescent intensity ([6]; 30 μM in acetonitrile after addition of 60.0 mM TFA): approximately 700 fold; λem,max (fluorescence emission) ([6]; 30 μM in acetonitrile in the presence of trifluoroacetic acid (60.0 mM TFA)): 450 nm; fluorescence intensity after base ([6]; acetonitrile, 60 mM TFA then 90 mM DBU): returned to zero; λem,max of the emission that increases as pH decreases ([5]; buffered water, 298 K, pH from 7.5 to 2.5): 450 nm
4 | CCN(CC)c1ccc(-n2cc(-c3cccc4cn(-c5ccc(N(C)C)cc5)c[n+]34)nn2)cc1.[Cl-] [Compound 10, 5-(1-(4-(diethylamino)phenyl)-1H-1,2,3-triazol-4-yl)-2-(4-(dimethylamino)phenyl)-2H-imidazo[1,5-a]pyridin-4-ium chloride] | – | 400 | – | essentially no fluorescence emission | – | – | – | – | – | – | – | 1.34×10^6 a.u. | about 7.57×10^5 arbitrary units (a.u.) | 600 | – | – | – | – | emission response to stepwise addition of TFA ([6]; acetonitrile, TFA 0 to 0.2 M, excited at 340 nm, emission at 580 nm and 400 nm): two stage transitions
5 | Cc1ccc(-n2cc(-c3cccc4cn(-c5ccc(N(C)C)cc5)c[n+]34)nn2)cc1.[Cl-] [Compound 11, 2-(4-(dimethylamino)phenyl)-5-(1-(p-tolyl)-1H-1,2,3-triazol-4-yl)-2H-imidazo[1,5-a]pyridin-4-ium chloride] | – | 400 | – | essentially no fluorescence emission | 29 | 0 | 35 | 400 | 340 | 340 | 400 | 1.34×10^6 a.u. | about 7.57×10^5 arbitrary units (a.u.) | 600 | 55 | 405 | 605 | 340 | –
6 | CCN(CC)c1ccc(-n2cc3cccc(-c4cn(-c5ccc(C)cc5)nn4)[n+]3c2)cc1.[Cl-] [Compound 12, 2-(4-(diethylamino)phenyl)-5-(1-(p-tolyl)-1H-1,2,3-triazol-4-yl)-2H-imidazo[1,5-a]pyridin-4-ium chloride] | – | 400 | – | essentially no fluorescence emission | – | 0 | 30 | – | – | 340 | 340 | 1.34×10^6 a.u. | about 7.57×10^5 arbitrary units (a.u.) | 600 | 57 | 400 | 600 | 340 | […]F (quantum yield) ([1]; H2O pH = 2.2, 30 μM): 66%; λem, max Em ([2]; H2O pH = 2.2, 30 μM): 400 nm; λabs, max Abs ([3]; H2O pH = 2.2, 30 μM): 340 nm; fluorescence intensity at 600 nm ([8]; 100 v/v % acetonitrile): 6.48×10^5 a.u.; fluorescence intensity at 600 nm ([8]; water, 0 v/v % acetonitrile): 7.81×10^3 a.u.
